Where two headings read alike, the source gives them in different places.
Experiment: Bidirectional Caco-2 permeability assay
Format: in vitro ADME
Conditions: human
Method: The bidirectional permeability of compounds across the Caco-2 cell monolayer was assessed. The Caco-2 model is a widely used in vitro model for small intestinal absorption and potential for efflux. Cell culture. Caco-2 cells were grown in DMEM supplemented with 10% fetal bovine serum (FBS), 1% Penicillin-Streptomycin and 1% MEMNEAA. The cells were incubated at 37° C., 5% CO2/95% air and saturated humidity. After reaching 80-90% confluency, the cells were gently detached with trypsin. Cells at passage 39 were seeded on the 24-well BD insert system at the density of 8×10^4 cells/cm^2 and cultured for 19 days with medium changed every 2-3 days. Measure the transepithelial electrical resistance (TEER) value of each well. The wells can be used only when their TEER values are greater than 600 Ohms/cm^2.
Transport assay. After removing the cell culture medium from the 24-well insert plate, the cells were rinsed with warm transport buffer. Appropriate dosing and receiving solutions were applied to the donor and receiver chambers to initiate the transport assay in apical to basolateral (A to B) or basolateral to apical (B to A) directions (500 and 1300 μL for apical and basolateral wells, respectively). Duplicate wells in each direction were used for the test compound and control compound. The plate was incubated in CO2 incubator at 37° C., with 5% CO2/95% air and saturated humidity without shaking. The sample after 10-minute incubation was used as the To sample, and the sample after 90-minute incubation was used as the T90 sample. To and T90 samples were collected from the donor and receiver side of each well at the designed timepoint, mixed with the transport buffer and acetonitrile/MeOH (1:1, v/v) and the internal standard for LC/MS/MS analysis. All samples were vortexed and centrifuged at 4000 rpm at 4° C. for 15 minutes, diluted with pure water and stored at 4° C. before bioanalysis by LC/MS/MS.
Sample analysis. The concentrations of test compounds and control compounds in Caco-2 cells were quantitatively determined by LC/MS/MS method after protein precipitation.
Calculations. The apparent permeability (Papp, cm/s), efflux ratio (ER) and recovery parameters were calculated for Caco-2 drug transport assay using the following equations: […]
where VR is the solution volume in the receiver chamber (0.4 mL on the apical side, 1.2 mL on the basolateral side); Area is the surface area for the insert membrane, i.e., 0.3 cm^2 for the area of the monolayer; Time is incubation time, expressed in seconds, i. e., 5400 s (90 min) for the current experiment; Co is the initial concentration of test compound or peak area ratio of control compounds in the donor chamber (M); VD is the volume in the donor chambers (0.4 mL on the apical side, 1.2 mL on the basolateral side); CD and CR are the final concentrations of test compounds or peak area ratio of control compounds in donor and receiver chambers, respectively.
Compounds with Papp<1.0 are classified as low permeability, Papp between 1-10 are classified as medium permeability, and Papp>10 are classified as high permeability. An efflux ratio (ER)>2 indicates the compounds are potential substrates for intestinal cell efflux transporters.

SMILES: CCC(CC)C(=O)Nc1ncnn2c([C@]3(C#N)O[C@H](COC(=O)CC4CCC4)[C@@H](OC(=O)[C@@H](N)C(C)(C)C)[C@H]3O)ccc12 [Compound 50, (2R,3S,4R,5R)-5-cyano-2-((2-cyclobutylacetoxy)methyl)-5-(4-(2-ethylbutanamido)pyrrolo[2,1-f][1,2,4]triazin-7-yl)-4-hydroxytetrahydrofuran-3-yl (S)-2-amino-3,3-dimethylbutanoate]
- Papp A→B at 90 min (Caco-2): 8.66 ×10⁻⁶ cm/s
- Papp B→A at 90 min (Caco-2): 8.25 ×10⁻⁶ cm/s
- efflux ratio at 90 min (Caco-2): 0.95

SMILES: CCCCC(=O)Nc1ncnn2c([C@]3(C#N)O[C@H](COC(=O)CC4CCCCCC4)[C@@H](OC(=O)[C@@H](N)C(C)(C)C)[C@H]3O)ccc12 [Compound 61, (2R,3S,4R,5R)-5-cyano-2-((2-cycloheptylacetoxy)methyl)-4-hydroxy-5-(4-pentanamidopyrrolo[2,1-f][1,2,4]triazin-7-yl)tetrahydrofuran-3-yl (S)-2-amino-3,3-dimethylbutanoate]
- Papp A→B at 90 min (Caco-2): 1.07 ×10⁻⁶ cm/s
- Papp B→A at 90 min (Caco-2): 0.65 ×10⁻⁶ cm/s
- efflux ratio at 90 min (Caco-2): 0.6

SMILES: CCCCOC(C)(C)C(=O)Nc1ncnn2c([C@]3(C#N)O[C@H](COC(=O)CC4CCCC4)[C@@H](OC(=O)[C@@H](N)C(C)(C)C)[C@H]3O)ccc12 [Compound 71, (2R,3S,4R,5R)-5-(4-(2-butoxy-2-methylpropanamido)pyrrolo[2,1-f][1,2,4]triazin-7-yl)-5-cyano-2-((2-cyclopentylacetoxy)methyl)-4-hydroxytetrahydrofuran-3-yl(S)-2-amino-3,3-dimethylbutanoate]
- Papp A→B at 90 min (Caco-2): 0.67 ×10⁻⁶ cm/s
- Papp B→A at 90 min (Caco-2): 8.18 ×10⁻⁶ cm/s
- efflux ratio at 90 min (Caco-2): 12.1

SMILES: CCC(CC)C(=O)Nc1ncnn2c([C@]3(C#N)O[C@H](COC(=O)CC4CCCCCC4)[C@@H](OC(=O)[C@H](N)C(C)(C)C)[C@H]3O)ccc12 [Compound 77, (2R,3S,4R,5R)-5-cyano-2-((2-cycloheptylacetoxy)methyl)-5-(4-(2-ethylbutanamido)pyrrolo[2,1-f][1,2,4]triazin-7-yl)-4-hydroxytetrahydrofuran-3-yl (R)-2-amino-3,3-dimethylbutanoate]
- Papp A→B at 90 min (Caco-2): 1 ×10⁻⁶ cm/s
- Papp B→A at 90 min (Caco-2): 1.6 ×10⁻⁶ cm/s
- efflux ratio at 90 min (Caco-2): 1.7

SMILES: CC(=O)OCOC(=O)Nc1ncnn2c([C@]3(C#N)O[C@H](COC(=O)CC4CCCCC4)[C@@H](OC(=O)[C@@H](N)C(C)(C)C)[C@H]3O)ccc12 [Compound 46, (2R,3S,4R,5R)-5-(4-(((acetoxymethoxy)carbonyl)amino)pyrrolo[2,1-f][1,2,4]triazin-7-yl)-5-cyano-2-((2-cyclohexylacetoxy)methyl)-4-hydroxytetrahydrofuran-3-yl (S)-2-amino-3,3-dimethylbutanoate]
- Papp A→B at 90 min (Caco-2): 1.45 ×10⁻⁶ cm/s
- Papp B→A at 90 min (Caco-2): 0.79 ×10⁻⁶ cm/s
- efflux ratio at 90 min (Caco-2): 0.54

SMILES: CCC(=O)O[C@H]1[C@@H](O)[C@](C#N)(c2ccc3c(NC(=O)OCOC(=O)C(C)(C)C)ncnn23)O[C@@H]1COC(=O)[C@@H](N)C(C)(C)C [Compound 40, ((2R,3S,4R,5R)-5-cyano-4-hydroxy-5-(4-((((pivaloyloxy)methoxy)carbonyl)amino)pyrrolo[2,1-f][1,2,4]triazin-7-yl)-3-(propionyloxy)tetrahydrofuran-2-yl)methyl (S)-2-amino-3,3-dimethylbutanoate]
- Papp A→B at 90 min (Caco-2): 0.13 ×10⁻⁶ cm/s
- Papp B→A at 90 min (Caco-2): 4.5 ×10⁻⁶ cm/s
- efflux ratio at 90 min (Caco-2): 34.4

SMILES: CC[C@H](C)C(=O)Nc1ncnn2c([C@]3(C#N)O[C@H](COC(=O)CC4CCCCC4)[C@@H](OC(=O)[C@@H](N)C(C)(C)C)[C@H]3O)ccc12 [Compound 13, (2R,3S,4R,5R)-5-cyano-2-((2-cyclohexylacetoxy)methyl)-4-hydroxy-5-(4-((S)-2-methylbutanamido)pyrrolo[2,1-f][1,2,4]triazin-7-yl)tetrahydrofuran-3-yl (S)-2-amino-3,3-dimethylbutanoate]
- Papp A→B at 90 min (Caco-2): 3.16 ×10⁻⁶ cm/s
- Papp B→A at 90 min (Caco-2): 30.5 ×10⁻⁶ cm/s
- efflux ratio at 90 min (Caco-2): 9.68

SMILES: CC(C)[C@H](C)C(=O)Nc1ncnn2c([C@]3(C#N)O[C@H](COC(=O)CC4CCCCC4)[C@@H](OC(=O)[C@@H](N)C(C)(C)C)[C@H]3O)ccc12 [Compound 15, (2R,3S,4R,5R)-5-cyano-2-((2-cyclohexylacetoxy)methyl)-5-(4-((S)-2,3-dimethylbutanamido)pyrrolo[2,1-f][1,2,4]triazin-7-yl)-4-hydroxytetrahydrofuran-3-yl (S)-2-amino-3,3-dimethylbutanoate]
- Papp A→B at 90 min (Caco-2): 1.93 ×10⁻⁶ cm/s
- Papp B→A at 90 min (Caco-2): 1.76 ×10⁻⁶ cm/s
- efflux ratio at 90 min (Caco-2): 0.91

SMILES: CCCCCCOC(=O)Nc1ncnn2c([C@]3(C#N)O[C@H](COC(=O)[C@@H](N)C(C)(C)C)[C@@H](O)[C@H]3O)ccc12 [Compound 41, ((2R,3S,4R,5R)-5-cyano-5-(4-(((hexyloxy)carbonyl)amino)pyrrolo[2,1-f][1,2,4]triazin-7-yl)-3,4-dihydroxytetrahydrofuran-2-yl)methyl (S)-2-amino-3,3-dimethylbutanoate]
- Papp A→B at 90 min (Caco-2): 1.41 ×10⁻⁶ cm/s
- Papp B→A at 90 min (Caco-2): 14.6 ×10⁻⁶ cm/s
- efflux ratio at 90 min (Caco-2): 10.4

SMILES: CCOC(C)(C)C(=O)Nc1ncnn2c([C@]3(C#N)O[C@H](COC(=O)CC4CCCC4)[C@@H](OC(=O)[C@@H](N)C(C)(C)C)[C@H]3O)ccc12 [Compound 66, (2R,3S,4R,5R)-5-cyano-2-((2-cyclopentylacetoxy)methyl)-5-(4-(2-ethoxy-2-methylpropanamido)pyrrolo[2,1-f][1,2,4]triazin-7-yl)-4-hydroxytetrahydrofuran-3-yl (S)-2-amino-3,3-dimethylbutanoate]
- Papp A→B at 90 min (Caco-2): 5.1 ×10⁻⁶ cm/s
- Papp B→A at 90 min (Caco-2): 5.79 ×10⁻⁶ cm/s
- efflux ratio at 90 min (Caco-2): 1.13

SMILES: CCCCOC(C)(C)C(=O)Nc1ncnn2c([C@]3(C#N)O[C@H](COC(=O)CC4CCCCCC4)[C@@H](OC(=O)[C@@H](N)C(C)(C)C)[C@H]3O)ccc12 [Compound 72, (2R,3S,4R,5R)-5-(4-(2-butoxy-2-methylpropanamido)pyrrolo[2,1-f][1,2,4]triazin-7-yl)-5-cyano-2-((2-cycloheptylacetoxy)methyl)-4-hydroxytetrahydrofuran-3-yl(S)-2-amino-3,3-dimethylbutanoate]
- Papp A→B at 90 min (Caco-2): 0.09 ×10⁻⁶ cm/s
- Papp B→A at 90 min (Caco-2): 7.6 ×10⁻⁶ cm/s
- efflux ratio at 90 min (Caco-2): 88.8

SMILES: CC(C)(C)[C@H](N)C(=O)OC[C@H]1O[C@@](C#N)(c2ccc3c(N)ncnn23)[C@H](O)[C@@H]1OC(=O)CC1CCCCC1 [Compound 32, ((2R,3S,4R,5R)-5-(4-aminopyrrolo[2,1-f][1,2,4]triazin-7-yl)-5-cyano-3-(2-cyclohexylacetoxy)-4-hydroxytetrahydrofuran-2-yl)methyl (S)-2-amino-3,3-dimethylbutanoate]
- Papp A→B at 90 min (Caco-2): 15.4 ×10⁻⁶ cm/s
- Papp B→A at 90 min (Caco-2): 20.7 ×10⁻⁶ cm/s
- efflux ratio at 90 min (Caco-2): 1.34

SMILES: CCCCOC(C)(C)C(=O)Nc1ncnn2c([C@]3(C#N)O[C@H](COC(=O)CC4CCCCC4)[C@@H](OC(=O)[C@@H](N)C(C)(C)C)[C@H]3O)ccc12 [Compound 74, (2R,3S,4R,5R)-5-(4-(2-butoxy-2-methylpropanamido)pyrrolo[2,1-f][1,2,4]triazin-7-yl)-5-cyano-2-((2-cyclohexylacetoxy)methyl)-4-hydroxytetrahydrofuran-3-yl (S)-2-amino-3,3-dimethylbutanoate]
- Papp A→B at 90 min (Caco-2): 0.41 ×10⁻⁶ cm/s
- Papp B→A at 90 min (Caco-2): 0.41 ×10⁻⁶ cm/s
- efflux ratio at 90 min (Caco-2): 1

SMILES: COC(C)(C)C(=O)Nc1ncnn2c([C@]3(C#N)O[C@H](COC(=O)CC4CCCCCC4)[C@@H](OC(=O)[C@@H](N)C(C)(C)C)[C@H]3O)ccc12 [Compound 63, (2R,3S,4R,5R)-5-cyano-2-((2-cycloheptylacetoxy)methyl)-4-hydroxy-5-(4-(2-methoxy-2-methylpropanamido)pyrrolo[2,1-f][1,2,4]triazin-7-yl)tetrahydrofuran-3-yl (S)-2-amino-3,3-dimethylbutanoate]
- Papp A→B at 90 min (Caco-2): 4.01 ×10⁻⁶ cm/s
- Papp B→A at 90 min (Caco-2): 2.79 ×10⁻⁶ cm/s
- efflux ratio at 90 min (Caco-2): 0.7

SMILES: CC(C)[C@@H](C)C(=O)Nc1ncnn2c([C@]3(C#N)O[C@H](COC(=O)Cc4ccccc4)[C@@H](OC(=O)[C@@H](N)C(C)(C)C)[C@H]3O)ccc12 [Compound 21, (2R,3S,4R,5R)-5-cyano-5-(4-((R)-2,3-dimethylbutanamido)pyrrolo[2,1-f][1,2,4]triazin-7-yl)-4-hydroxy-2-((2-phenylacetoxy)methyl)tetrahydrofuran-3-yl (S)-2-amino-3,3-dimethylbutanoate]
- Papp A→B at 90 min (Caco-2 monolayer, apical to basolateral, 90-minute incubation, read-out: Papp, A-B): 3.1 ×10⁻⁶ cm/s
- Papp B→A at 90 min (Caco-2 monolayer, basolateral to apical, 90-minute incubation, read-out: Papp, B-A): 21 ×10⁻⁶ cm/s
- efflux ratio at 90 min (Caco-2 monolayer, ER>2 indicates potential efflux substrate, read-out: ER (efflux ratio)): 6.77
